From paper PMC8286840, “Identifying SARS-CoV-2 antiviral compounds by screening for small molecule inhibitors of Nsp3 papain-like protease” (Biochemical Journal, 2021)
Structures can show the parent of a compound that is named as a salt. Where two headings read alike, the source gives them in different places.

How the values were obtained:
[1] = molecular target: T1, SARS-CoV-2 PLpro (nsp3 1564–1878) (Severe acute respiratory syndrome coronavirus 2, UniProt P0DTD1); test: biochemical; parameters: FRET-quenched peptide (Pro3) cleavage by PLpro, 10 min pre-incubation, slope over 20 min, normalised to no-compound control; details: low concentration screen, read-out: % of control remaining
[2] = molecular target: T1, SARS-CoV-2 PLpro (nsp3 1564–1878); test: biochemical; parameters: FRET-quenched peptide (Pro3) cleavage by PLpro, 10 min pre-incubation, slope over 20 min, normalised to no-compound control; details: high concentration screen, read-out: % of control remaining

Cc1cc2c(s1)Nc1ccccc1N=C2N1CCN(C)CC1 [Olanzapine]
remaining activity at 1.25 µM ([1]; Well no.=1828): 93.3% | remaining activity at 1.25 µM ([1]; Well no.=8193): 106% | remaining activity at 3.75 µM ([2]; Well no.=1828): 95.2% | remaining activity at 3.75 µM ([2]; Well no.=8193): 111%

NCC(O)c1ccc(O)cc1 (centres unmarked) [Octopamine (hydrochloride)]
remaining activity at 1.25 µM ([1]; Well no.=6713): 98.8% | remaining activity at 3.75 µM ([2]; Well no.=6713): 98.6%

COc1ccc(C(=O)NCc2cccnc2)cc1C(=O)NCc1cccnc1 [Picotamide]
remaining activity at 1.25 µM ([1]; Well no.=1351): 102% | remaining activity at 1.25 µM ([1]; Well no.=2202): 88.9% | remaining activity at 3.75 µM ([2]; Well no.=1351): 102% | remaining activity at 3.75 µM ([2]; Well no.=2202): 90.3%

CO[C@@H](C(=O)N1Cc2[nH]nc(NC(=O)c3ccc(N4CCN(C)CC4)cc3)c2C1)c1ccccc1 [Danusertib (PHA-739358)]
remaining activity at 1.25 µM ([1]; Well no.=5045): 103% | remaining activity at 3.75 µM ([2]; Well no.=5045): 106%

CC1(COc2ccc(CC3SC(=O)NC3=O)cc2)CCCCC1 (centres unmarked) [Ciglitizone]
remaining activity at 1.25 µM ([1]; Well no.=222): 99% | remaining activity at 3.75 µM ([2]; Well no.=222): 97.7%

C[C@H]1CCN(C(=O)CC#N)C[C@H]1N(C)c1ncnc2[nH]ccc12 [Tasocitinib]
remaining activity at 1.25 µM ([1]; Well no.=2789): 103% | remaining activity at 3.75 µM ([2]; Well no.=2789): 98.6%

NS(=O)(=O)c1ccc(NC2=CC(=O)c3ccccc3C2=O)cc1 [ML329]
remaining activity at 1.25 µM ([1]; Well no.=8264): 91.6% | remaining activity at 3.75 µM ([2]; Well no.=8264): 90.3%

CCCCC(CC)COC(=O)CC(C(=O)OCC(CC)CCCC)S(=O)(=O)O (centres unmarked) [Docusate Sodium]
remaining activity at 1.25 µM ([1]; Well no.=8348): 94.3% | remaining activity at 3.75 µM ([2]; Well no.=8348): 92.6%

c1cnc(NCc2ccc(CNc3ncccn3)cc2)nc1 [MSX-122]
remaining activity at 1.25 µM ([1]; Well no.=8075): 97% | remaining activity at 1.25 µM ([1]; Well no.=8397): 89.1% | remaining activity at 3.75 µM ([2]; Well no.=8075): 84.8% | remaining activity at 3.75 µM ([2]; Well no.=8397): 90.4%

NC1(Cc2ccc(Cl)cc2)CCN(c2ncnc3[nH]ccc23)CC1 [CCT128930]
remaining activity at 1.25 µM ([1]; Well no.=5302): 97.5% | remaining activity at 3.75 µM ([2]; Well no.=5302): 95.6%

COc1ccc2nc3n[nH]c(C)c3c(NCCOCCO)c2c1 [Ras/Rac Transformation Blocker, SCH 51344]
remaining activity at 1.25 µM ([1]; Well no.=2619): 96.5% | remaining activity at 3.75 µM ([2]; Well no.=2619): 101%

COC1=C(N)C(=O)c2nc(-c3nc(C(=O)O)c(C)c(-c4ccc(OC)c(OC)c4O)c3N)ccc2C1=O [Streptonigrin]
remaining activity at 1.25 µM ([1]; Well no.=3304): 96.9% | remaining activity at 3.75 µM ([2]; Well no.=3304): 96.9%

CC1=C(C)C(=O)C(CCCCC#CCCCC#CCO)=C(C)C1=O [AA-861]
remaining activity at 1.25 µM ([1]; Well no.=109): 106% | remaining activity at 1.25 µM ([1]; Well no.=3941): 105% | remaining activity at 3.75 µM ([2]; Well no.=109): 103% | remaining activity at 3.75 µM ([2]; Well no.=3941): 102%

N[C@@H](Cc1ccc(O)c(Cl)c1)C(=O)O [3-Chloro-L-tyrosine]
remaining activity at 1.25 µM ([1]; Well no.=7491): 101% | remaining activity at 3.75 µM ([2]; Well no.=7491): 101%

OCCC#Cc1nc(-c2ccc(F)cc2)c(-c2ccncc2)n1CCCc1ccccc1 [RWJ-67657]
remaining activity at 1.25 µM ([1]; Well no.=2987): 94.7% | remaining activity at 3.75 µM ([2]; Well no.=2987): 91.7%

N[C@@H](Cn1oc(=O)[nH]c1=O)C(=O)O [(+)-Quisqualic acid]
remaining activity at 1.25 µM ([1]; Well no.=1507): 96.2% | remaining activity at 3.75 µM ([2]; Well no.=1507): 97.1%

O=C(O)CCc1ccccc1 [Hydrocinnamic acid]
remaining activity at 1.25 µM ([1]; Well no.=6731): 98.5% | remaining activity at 3.75 µM ([2]; Well no.=6731): 96.7%

C[C@@H]1CN(c2c(F)c(N)c3c(=O)c(C(=O)O)cn(C4CC4)c3c2F)C[C@H](C)N1 [Sparfloxacin]
remaining activity at 1.25 µM ([1]; Well no.=2251): 95.3% | remaining activity at 3.75 µM ([2]; Well no.=2251): 97.4%

CC(=O)CC(=O)CCC(=O)O [4,6-Dioxoheptanoic acid]
remaining activity at 1.25 µM ([1]; Well no.=7261): 102% | remaining activity at 3.75 µM ([2]; Well no.=7261): 102%

COc1ccc([C@]2(O)CC[C@@H](N3CC[C@@H](NC(=O)CNC(=O)c4cccc(C(F)(F)F)c4)C3)CC2)cn1 [INCB 3284]
remaining activity at 1.25 µM ([1]; Well no.=8271): 102% | remaining activity at 3.75 µM ([2]; Well no.=8271): 99.4%

CC(C)(C)OC(=O)CN(Cc1ccc(Cl)cc1)Cc1ccc([N+](=O)[O-])s1 [GSK4112]
remaining activity at 1.25 µM ([1]; Well no.=5910): 97.7% | remaining activity at 3.75 µM ([2]; Well no.=5910): 96%

COc1cc2c(CCNC(C)=O)c[nH]c2cc1Cl [6-Chloromelatonin]
remaining activity at 1.25 µM ([1]; Well no.=89): 98.5% | remaining activity at 3.75 µM ([2]; Well no.=89): 101%

OCCOc1ccc(/C(=C(/CCCl)c2ccccc2)c2ccccc2)cc1 [2-{4-[(1Z)-4-chloro-1,2-diphenyl-1-butenyl]phenoxy}ethanol]
remaining activity at 1.25 µM ([1]; Well no.=5956): 92.3% | remaining activity at 3.75 µM ([2]; Well no.=5956): 93.6%

O=C(O)CC[C@H](NC(=O)N[C@@H](CCCCNC(=O)[C@H](Cc1ccc2ccccc2c1)NC(=O)[C@H]1CC[C@H](CNC(=O)CN2CCN(CC(=O)O)CCN(CC(=O)O)CCN(CC(=O)O)CC2)CC1)C(=O)O)C(=O)O [Vipivotide tetraxetan]
remaining activity at 1.25 µM ([1]; Well no.=7834): 103% | remaining activity at 3.75 µM ([2]; Well no.=7834): 104%

Cc1cccc(C)c1OCC(C)N (centres unmarked) [Mexiletene hydrochloride]
remaining activity at 1.25 µM ([1]; Well no.=1066): 102% | remaining activity at 3.75 µM ([2]; Well no.=1066): 99.6%

O=C1CN(/N=C/c2ccc(-c3ccc([N+](=O)[O-])cc3)o2)C(=O)N1 [Dantrolene sodium salt]
remaining activity at 1.25 µM ([1]; Well no.=5847): 104% | remaining activity at 3.75 µM ([2]; Well no.=5847): 101%

O=C1C(=O)N(Cc2ccc(Cl)c(Cl)c2)c2ccccc21 [Apoptosis Activator 2]
remaining activity at 1.25 µM ([1]; Well no.=5259): 98.8% | remaining activity at 3.75 µM ([2]; Well no.=5259): 95.7%

CCOc1ccc(-n2c([C@@H](C)N(Cc3cccnc3)C(=O)Cc3ccc(OC(F)(F)F)cc3)nc3ncccc3c2=O)cc1 [AMG 487]
remaining activity at 1.25 µM ([1]; Well no.=8651): 101% | remaining activity at 3.75 µM ([2]; Well no.=8651): 97.8%

CN1C[C@@H]2c3ccccc3Oc3ccc(Cl)cc3[C@H]2C1 (racemic) [Asenapine (hydrochloride)]
remaining activity at 1.25 µM ([1]; Well no.=7661): 101% | remaining activity at 3.75 µM ([2]; Well no.=7661): 97%

CCCC(=O)O[C@@H]1[C@@H](C)[C@@]2(O)[C@@H](C=C(CO)C[C@]3(O)C(=O)C(C)=C[C@@H]23)[C@@H]2C(C)(C)[C@]12OC(=O)CCC [Phorbol 12,13-dibutyrate]
remaining activity at 1.25 µM ([1]; Well no.=3487): 97.7% | remaining activity at 3.75 µM ([2]; Well no.=3487): 100%

CC[C@H](C)/C=C(C)/C=C/C1=CC2=C(Cl)C(=O)[C@](C)(OC(C)=O)C(=O)C2=CO1 [Sclerotiorin]
remaining activity at 1.25 µM ([1]; Well no.=3604): 100% | remaining activity at 3.75 µM ([2]; Well no.=3604): 98.6%

CCCc1ccc(OCC(=O)N(Cc2nc(-c3cccnc3)no2)C(C)C)cc1 [PI-1840]
remaining activity at 1.25 µM ([1]; Well no.=8718): 94.8% | remaining activity at 3.75 µM ([2]; Well no.=8718): 98.4%

CCC(=O)OCC(=O)[C@@]1(OC(=O)CC)[C@@H](C)C[C@H]2[C@@H]3CCC4=CC(=O)C=C[C@]4(C)[C@@]3(F)[C@@H](O)C[C@@]21C [Betamethasone dipropionate]
remaining activity at 1.25 µM ([1]; Well no.=7091): 93.4% | remaining activity at 3.75 µM ([2]; Well no.=7091): 98.8%
